Laboratory results as given in ChEMBL document CHEMBL3244383, “Antiinflammatory activity of 17-esters of 6alpha,9alpha-difluoro-21-deoxyprednisolone” (1977).

Legend:
Type in all cases: functional
Homo sapiens = assay: Vasoconstrictive activity in human at 0.02 to 0.18 ug applied topically by paper-patch test relative to betamethasone 17-valerate
Rattus norvegicus [1] = species: Rattus norvegicus; assay: Antiexudative activity in rat assessed as inhibition of exudate formation in granuloma pouch at 0.02 umol compound injected into pouch on day 5 measured on day 11 relative to control
Rattus norvegicus [2] = species: Rattus norvegicus; assay: Antiexudative activity in rat assessed as inhibition of exudate formation in granuloma pouch at 0.002 umol compound injected into pouch on day 5 measured on day 11 relative to control
Rattus norvegicus [3] = assay: Antiexudative activity in rat assessed as inhibition of exudate formation in granuloma pouch at 0.002 umol, sc administered from day 2 to day 10 measured on day 11 relative to control
Rattus norvegicus [4] = assay: Antiexudative activity in rat assessed as inhibition of exudate formation in granuloma pouch at 0.02 umol, sc administered from day 2 to day 10 measured on day 11 relative to control

Structure (SMILES) | fold change (FC) (Homo sapiens) | inhibition (INH) (Rattus norvegicus [1]) [%] | inhibition (INH) (Rattus norvegicus [2]) [%] | inhibition (INH) (Rattus norvegicus [3]) [%] | inhibition (INH) (Rattus norvegicus [4]) [%]
CC(=O)O[C@]1(C(C)=O)CC[C@H]2[C@@H]3C[C@H](F)C4=CC(=O)C=C[C@]4(C)[C@@]3(F)[C@@H](O)C[C@@]21C | 1.5 | 13 | 18 | – | –
CCC(=O)O[C@]1(C(=O)CO)CC[C@H]2[C@@H]3C[C@H](F)C4=CC(=O)C=C[C@]4(C)[C@@]3(F)[C@@H](O)C[C@@]21C | – | 41 | <5 | – | –
C[C@]12C=CC(=O)C=C1[C@@H](F)C[C@H]1[C@@H]3CC[C@](OC(=O)c4ccccc4)(C(=O)CO)[C@@]3(C)C[C@H](O)[C@@]12F | – | 70 | 46 | 20 | 62
CCC(=O)O[C@]1(C(C)=O)CC[C@H]2[C@@H]3C[C@H](F)C4=CC(=O)C=C[C@]4(C)[C@@]3(F)[C@@H](O)C[C@@]21C | 2.5 | 67 | 47 | – | –
CC(=O)[C@@]1(OC(=O)c2ccccc2)CC[C@H]2[C@@H]3C[C@H](F)C4=CC(=O)C=C[C@]4(C)[C@@]3(F)[C@@H](O)C[C@@]21C | <=1 | 90 | 71 | <5 | 35
CCCC(=O)O[C@]1(C(C)=O)CC[C@H]2[C@@H]3C[C@H](F)C4=CC(=O)C=C[C@]4(C)[C@@]3(F)[C@@H](O)C[C@@]21C | 2.5 | 81 | 60 | – | –
